Experimental data: ChEMBL document CHEMBL5223122, “Discovery and preclinical evaluations of GST-HG131, a novel HBV antigen inhibitor for the treatment of chronic hepatitis B infection” (Bioorg Med Chem Lett, 2022)
The source made the active and inactive calls. The rule behind the calls is not given here.

What was measured:
Hepatitis B virus [1] = test: Antiviral activity against HBV infected in human HepG2.2.15 assessed as HBV DNA reduction by qPCR method; type: functional, organism-based
Hepatitis B virus [2] = test: Antiviral activity against HBV infected in human HepG2.2.15 assessed as reduction on HBsAg level by ELISA; type: functional, organism-based
[3] = Clearance in C57BL/6 mouse at 1 mg/kg, iv; type: ADME, organism-based; conditions: in vivo
[4] = Volume of distribution in steady state in C57BL/6 mouse at 1 mg/kg, iv; type: ADME, organism-based; conditions: in vivo, read-out: Vdss
[5] = Half life in C57BL/6 mouse at 1 mg/kg, iv; type: ADME, organism-based; conditions: in vivo
[6] = Cmax in C57BL/6 mouse at 2 mg/kg, po; type: ADME, organism-based; design: dose 2 mg/kg, route po; conditions: in vivo
[7] = Oral bioavailability in C57BL/6 mouse at 2 mg/kg; type: ADME, organism-based; conditions: in vivo
[8] = Clearance in Sprague-Dawley rat at 1 mg/kg, iv; type: ADME, organism-based; conditions: in vivo
[9] = Volume of distribution in steady state in Sprague-Dawley rat at 1 mg/kg, iv; type: ADME, organism-based; conditions: in vivo, read-out: Vdss
[10] = Half life in Sprague-Dawley rat at 1 mg/kg, iv; type: ADME, organism-based; conditions: in vivo
[11] = Cmax in Sprague-Dawley rat at 2 mg/kg, po; type: ADME, organism-based; design: dose 2 mg/kg, route po; conditions: in vivo
[12] = Oral bioavailability in Sprague-Dawley rat at 2 mg/kg; type: ADME, organism-based; conditions: in vivo
[13] = Clearance in Beagle dog at 1 mg/kg, iv; type: ADME, organism-based, Canis lupus familiaris; conditions: in vivo
[14] = Volume of distribution in steady state in Beagle dog at 1 mg/kg, iv; type: ADME, organism-based, Canis lupus familiaris; conditions: in vivo, read-out: Vdss
[15] = Half life in Beagle dog at 1 mg/kg, iv; type: ADME, organism-based, Canis lupus familiaris; conditions: in vivo
[16] = Cmax in Beagle dog at 3 mg/kg, po; type: ADME, organism-based, Canis lupus familiaris; design: dose 3 mg/kg, route po; conditions: in vivo
[17] = AUC (0-last) in Beagle dog at 3 mg/kg, po; type: ADME, organism-based, Canis lupus familiaris; design: dose 3 mg/kg, route po; conditions: in vivo
[18] = Oral bioavailability in Beagle dog at 3 mg/kg; type: ADME, organism-based, Canis lupus familiaris; conditions: in vivo
[19] = Apparent permeability across apical to basolateral side in human Caco-2 cells; type: ADME, cell-based
[20] = Apparent permeability across basolateral to apical side in human Caco-2 cells; type: ADME, cell-based
[21] = Efflux ratio of apparent permeability from basolateral to apical side over apical to basolateral side in human Caco-2 cells; type: ADME, cell-based
[22] = Protein binding in human plasma assessed as unbound fraction; type: ADME, cell-free
[23] = Protein binding in rat plasma assessed as unbound fraction; type: ADME, cell-free
[24] = Microsomal stability in mouse liver microsomes assessed as intrinsic clearance measured per mg of protein; type: ADME, Microsome; conditions: read-out: CLH
[25] = Microsomal stability in rat liver microsomes assessed as intrinsic clearance measured per mg of protein; type: ADME, Microsome; conditions: read-out: CLH
[26] = Microsomal stability in dog liver microsomes assessed as intrinsic clearance measured per mg of protein; type: ADME, Canis lupus familiaris, Microsome; conditions: read-out: CLH
[27] = Microsomal stability in cynomolgus monkey liver microsomes assessed as intrinsic clearance measured per mg of protein; type: ADME, Macaca fascicularis, Microsome; conditions: read-out: CLH
[28] = Microsomal stability in human liver microsomes assessed as intrinsic clearance measured per mg of protein; type: ADME, Microsome; conditions: read-out: CLH
CYP1A2 = molecular target: T1, CYP1A2 (Homo sapiens, UniProt P05177); test: Inhibition of CYP1A2 (unknown origin); type: ADME
T1 sequence (P05177 whole entry): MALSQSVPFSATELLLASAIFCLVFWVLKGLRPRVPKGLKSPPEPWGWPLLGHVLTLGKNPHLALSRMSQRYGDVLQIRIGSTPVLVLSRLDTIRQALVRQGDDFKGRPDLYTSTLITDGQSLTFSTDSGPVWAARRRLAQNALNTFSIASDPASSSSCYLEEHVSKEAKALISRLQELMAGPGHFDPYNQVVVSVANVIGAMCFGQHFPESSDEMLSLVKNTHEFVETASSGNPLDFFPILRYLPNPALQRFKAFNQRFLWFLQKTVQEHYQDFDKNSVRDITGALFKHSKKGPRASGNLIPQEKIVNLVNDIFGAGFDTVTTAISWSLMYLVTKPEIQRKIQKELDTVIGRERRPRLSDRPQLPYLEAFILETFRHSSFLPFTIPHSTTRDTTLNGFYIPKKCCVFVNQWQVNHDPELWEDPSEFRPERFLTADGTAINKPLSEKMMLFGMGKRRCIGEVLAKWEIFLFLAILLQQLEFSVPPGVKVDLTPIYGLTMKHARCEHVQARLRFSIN

CYP2D6 = CYP2D6 (Homo sapiens, UniProt P10635); test: Inhibition of CYP2D6 (unknown origin); type: ADME
CYP2C19 = CYP2C19 (Homo sapiens, UniProt P33261); test: Inhibition of CYP2C19 (unknown origin); type: ADME
CYP2C9 = CYP2C9 (Homo sapiens, UniProt P11712); test: Inhibition of CYP2C9 (unknown origin); type: ADME
CYP3A4 = CYP3A4 (Homo sapiens, UniProt P08684); test: Inhibition of CYP3A4 (unknown origin); type: ADME
[29] = molecular target: Voltage-gated inwardly rectifying potassium channel KCNH2 (Homo sapiens, UniProt Q12809); test: Inhibition of human ERG; type: toxicity
Cytochrome P450 3A4 = Cytochrome P450 3A4 (Homo sapiens, UniProt P08684); test: Induction of CYP3A4 (unknown origin); type: ADME
Hepatitis B virus [30] = test: Antiviral activity against HBV infected in human primary hepatocytes assessed as reduction on HBsAg level by ELISA; type: functional, organism-based; conditions: Hepatocyte
Hepatitis B virus [31] = test: Antiviral activity against HBV infected in human primary hepatocytes assessed as reduction on HBeAg level by ELISA; type: functional, organism-based; conditions: Hepatocyte
Hepatitis B virus [32] = test: Antiviral activity against HBV infected in human primary hepatocytes assessed as HBV DNA reduction at 20 uM by qPCR method; type: functional, Primary hepatocyte; design: scale not given: the % may be the effect or the level left
Hepatitis B virus [33] = test: Antiviral activity against HBV infected in human HepG2.2.15 cells assessed as reduction of 3.5 Kb HBV RNA level at 0.23 to 500 nM by Northern blot anlaysis; type: functional, organism-based; conditions: dose 0.23-500 nM
Hepatitis B virus [34] = test: Antiviral activity against HBV infected in human HepG2.2.15 cells assessed as reduction of 2.4/2.1 Kb HBV RNA level at 0.23 to 500 nM by Northern blot anlaysis; type: functional, organism-based; conditions: dose 0.23-500 nM
Hepatitis B virus [35] = test: Antiviral activity against HBV infected in human HepG2.2.15 cells assessed as reduction of 3.5 Kb HBV RNA level at 500 nM incubated for 4 to 48 hrs by Northern blot anlaysis; type: functional, organism-based; conditions: time 4-48 hrs, TDE = time-dependent effect
Hepatitis B virus [36] = test: Antiviral activity against HBV infected in human HepG2.2.15 cells assessed as reduction of 2.4/2.1 Kb HBV RNA level at 500 nM incubated for 4 to 48 hrs by Northern blot anlaysis; type: functional, organism-based; conditions: time 4-48 hrs, TDE = time-dependent effect
Hepatitis B virus [37] = test: Antiviral activity against HBV infected in human HepG2.2.15 cells assessed as maximum efficacy causing reduction of 3.5 Kb HBV RNA level incubated for 16 hrs by Northern blot anlaysis; type: functional, organism-based
Hepatitis B virus [38] = test: In vivo antiviral activity against AAV encapsidated HBV infected in mouse assessed as reduction in HBsAg level at 3 to 10 mg/kg, po QD for 4 weeks by ELISA; type: functional, organism-based; conditions: dose 3-10 mg/kg
Hepatitis B virus [39] = test: In vivo antiviral activity against AAV encapsidated HBV infected in mouse assessed as reduction in HBeAg level at 3 to 10 mg/kg, po QD for 4 weeks by ELISA; type: functional, organism-based; conditions: dose 3-10 mg/kg
Hepatitis B virus [40] = test: In vivo antiviral activity against AAV encapsidated HBV infected in mouse assessed as reduction in HBV DNA at 3 to 10 mg/kg, po QD for 4 weeks by qPCR method; type: functional, organism-based; conditions: dose 3-10 mg/kg
Hepatitis B virus [41] = test: In vivo antiviral activity against AAV encapsidated HBV infected in mouse assessed as reduction in HBsAg level at 10 mg/kg, po QD for 4 weeks in presence of tenofovir disoproxil fumarate by ELISA; type: functional, organism-based
Hepatitis B virus [42] = test: In vivo antiviral activity against AAV encapsidated HBV infected in mouse assessed as reduction in HBeAg level at 10 mg/kg, po QD for 4 weeks in presence of tenofovir disoproxil fumarate by ELISA; type: functional, organism-based
Hepatitis B virus [43] = test: In vivo antiviral activity against AAV encapsidated HBV infected in mouse assessed as reduction in HBV DNA at 10 mg/kg, po QD for 4 weeks in presence of tenofovir disoproxil fumarate by qPCR method; type: functional, organism-based
[44] = Toxicity in mouse infected with AAV encapsidated HBV assessed as change in body weight at 3 to 10 mg/kg, po QD for 4 weeks; type: organism-based; conditions: in vivo, 672 h, dose 3-10 mg/kg
[45] = Glutathione reactivity assessed as GSH adduct formation; type: ADME
[46] = Toxicity in rat assessed as organ abnormality at 100 to 300 mg/kg, po QD for 14 days; type: organism-based; conditions: in vivo, 336 h, dose 100-300 mg/kg, time 14 day
[47] = Toxicity in rat assessed as mild white myeloid lymphocytopenia of spleen at 1000 mg/kg, po QD for 14 days; type: organism-based; conditions: in vivo, 336 h, time 14 day
[48] = Toxicity in rat assessed as rectal temperature at 300 to 1000 mg/kg, po measured after 1 hrs; type: organism-based; conditions: in vivo, dose 300-1000 mg/kg

CYP2C19, sequence (P33261 whole entry): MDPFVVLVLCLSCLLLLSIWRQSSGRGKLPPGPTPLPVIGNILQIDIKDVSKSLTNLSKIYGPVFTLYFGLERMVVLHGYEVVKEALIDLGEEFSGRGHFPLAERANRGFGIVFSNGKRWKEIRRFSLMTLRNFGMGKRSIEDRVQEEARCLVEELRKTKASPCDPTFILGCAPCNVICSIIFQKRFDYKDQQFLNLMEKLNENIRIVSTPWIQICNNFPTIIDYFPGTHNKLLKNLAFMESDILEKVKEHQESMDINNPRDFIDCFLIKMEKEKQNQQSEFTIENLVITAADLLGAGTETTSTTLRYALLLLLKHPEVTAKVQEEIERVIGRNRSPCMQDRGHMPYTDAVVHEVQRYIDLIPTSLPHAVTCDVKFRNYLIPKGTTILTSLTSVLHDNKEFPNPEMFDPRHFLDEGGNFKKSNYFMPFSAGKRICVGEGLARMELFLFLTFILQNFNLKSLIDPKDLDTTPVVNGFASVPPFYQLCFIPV
CYP2D6, sequence (P10635 whole entry): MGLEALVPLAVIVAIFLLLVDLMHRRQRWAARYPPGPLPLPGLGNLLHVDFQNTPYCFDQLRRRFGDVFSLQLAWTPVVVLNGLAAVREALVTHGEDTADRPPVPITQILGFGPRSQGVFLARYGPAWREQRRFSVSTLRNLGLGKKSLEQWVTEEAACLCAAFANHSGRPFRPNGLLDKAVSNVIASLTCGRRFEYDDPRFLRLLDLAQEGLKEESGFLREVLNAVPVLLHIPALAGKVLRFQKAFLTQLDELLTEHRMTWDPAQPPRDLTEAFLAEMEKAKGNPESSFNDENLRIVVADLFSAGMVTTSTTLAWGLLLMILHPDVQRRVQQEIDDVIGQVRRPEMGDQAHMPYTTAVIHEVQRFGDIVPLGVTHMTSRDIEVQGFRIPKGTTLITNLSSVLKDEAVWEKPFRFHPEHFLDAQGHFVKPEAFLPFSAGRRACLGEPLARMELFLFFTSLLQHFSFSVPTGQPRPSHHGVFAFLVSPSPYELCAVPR
CYP3A4, sequence (P08684 whole entry): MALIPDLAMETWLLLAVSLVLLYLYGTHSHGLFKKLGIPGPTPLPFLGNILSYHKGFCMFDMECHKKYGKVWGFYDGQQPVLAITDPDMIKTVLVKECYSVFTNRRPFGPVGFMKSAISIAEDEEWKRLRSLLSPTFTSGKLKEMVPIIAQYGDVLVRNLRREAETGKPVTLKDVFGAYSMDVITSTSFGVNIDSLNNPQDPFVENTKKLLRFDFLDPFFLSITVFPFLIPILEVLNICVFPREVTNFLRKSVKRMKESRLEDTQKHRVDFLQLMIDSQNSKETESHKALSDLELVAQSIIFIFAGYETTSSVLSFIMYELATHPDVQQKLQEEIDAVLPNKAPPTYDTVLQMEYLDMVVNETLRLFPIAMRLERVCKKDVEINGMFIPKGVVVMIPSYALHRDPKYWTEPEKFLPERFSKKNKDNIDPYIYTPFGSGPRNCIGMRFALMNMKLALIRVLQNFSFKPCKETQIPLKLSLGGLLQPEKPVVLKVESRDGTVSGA
Cytochrome P450 3A4, sequence (P08684 whole entry): as above
CYP2C9, sequence (P11712 whole entry): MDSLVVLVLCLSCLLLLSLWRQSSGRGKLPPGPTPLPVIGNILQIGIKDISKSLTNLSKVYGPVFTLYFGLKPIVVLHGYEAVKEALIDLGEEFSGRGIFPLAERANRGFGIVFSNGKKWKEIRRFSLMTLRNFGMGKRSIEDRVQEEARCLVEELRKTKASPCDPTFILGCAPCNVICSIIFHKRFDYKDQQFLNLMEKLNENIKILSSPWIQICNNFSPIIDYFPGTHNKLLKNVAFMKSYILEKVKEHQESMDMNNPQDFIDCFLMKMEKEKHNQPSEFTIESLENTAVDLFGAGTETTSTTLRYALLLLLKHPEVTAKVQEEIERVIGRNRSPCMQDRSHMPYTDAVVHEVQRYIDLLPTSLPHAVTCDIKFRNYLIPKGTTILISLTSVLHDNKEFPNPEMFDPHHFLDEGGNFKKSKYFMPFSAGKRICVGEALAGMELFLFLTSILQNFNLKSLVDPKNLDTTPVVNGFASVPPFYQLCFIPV
Voltage-gated inwardly rectifying potassium channel KCNH2, sequence (Q12809 whole entry): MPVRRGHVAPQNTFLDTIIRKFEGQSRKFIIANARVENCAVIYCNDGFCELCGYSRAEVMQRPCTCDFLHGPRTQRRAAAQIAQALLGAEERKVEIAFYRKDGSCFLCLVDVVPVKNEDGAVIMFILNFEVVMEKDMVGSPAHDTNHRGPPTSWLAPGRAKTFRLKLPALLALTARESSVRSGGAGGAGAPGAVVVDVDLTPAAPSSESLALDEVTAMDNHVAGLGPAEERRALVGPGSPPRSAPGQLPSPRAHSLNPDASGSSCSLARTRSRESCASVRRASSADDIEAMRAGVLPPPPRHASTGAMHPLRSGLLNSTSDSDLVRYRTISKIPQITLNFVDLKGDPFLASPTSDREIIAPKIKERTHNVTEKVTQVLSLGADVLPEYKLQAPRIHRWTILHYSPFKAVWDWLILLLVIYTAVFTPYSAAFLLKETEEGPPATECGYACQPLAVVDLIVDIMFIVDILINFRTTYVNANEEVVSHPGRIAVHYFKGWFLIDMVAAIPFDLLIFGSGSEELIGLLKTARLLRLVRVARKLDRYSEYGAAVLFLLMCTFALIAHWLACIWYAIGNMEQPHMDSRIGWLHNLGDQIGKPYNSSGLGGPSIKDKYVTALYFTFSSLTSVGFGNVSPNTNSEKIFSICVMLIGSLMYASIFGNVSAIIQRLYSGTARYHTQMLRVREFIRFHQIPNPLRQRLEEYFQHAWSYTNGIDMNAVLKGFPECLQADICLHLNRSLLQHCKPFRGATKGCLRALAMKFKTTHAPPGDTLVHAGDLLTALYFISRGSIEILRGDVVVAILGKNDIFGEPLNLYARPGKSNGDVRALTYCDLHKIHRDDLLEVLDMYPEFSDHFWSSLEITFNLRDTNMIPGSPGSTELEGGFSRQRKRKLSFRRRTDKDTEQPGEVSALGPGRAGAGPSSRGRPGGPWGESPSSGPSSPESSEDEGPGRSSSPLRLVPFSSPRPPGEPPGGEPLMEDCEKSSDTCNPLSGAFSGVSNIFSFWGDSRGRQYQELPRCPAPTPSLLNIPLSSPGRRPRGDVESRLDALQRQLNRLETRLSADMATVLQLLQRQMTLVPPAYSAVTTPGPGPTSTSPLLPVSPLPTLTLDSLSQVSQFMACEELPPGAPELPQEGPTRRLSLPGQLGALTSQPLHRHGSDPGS

COCCCOc1cc2c(cc1OC)-c1cc(=O)c(C(=O)O)cn1[C@H](C(C)(C)C)CO2
EC50 (Hepatitis B virus [1]): 2.6 nM
EC50 (Hepatitis B virus [2]): 3.9 nM
clearance [3]: 75 mL/min/kg
Vd [4]: 5.8 L/kg
half-life [5]: 2.5 h
Cmax [6]: 1060 nM
bioavailability [7]: 91.6%
clearance [8]: 28 mL/min/kg
Vd [9]: 1.72 L/kg
half-life [10]: 2 h
Cmax [11]: 659 nM
bioavailability [12]: 71.1%
clearance [13]: 4.04 mL/min/kg
Vd [14]: 1.08 L/kg
half-life [15]: 3.39 h
Cmax [16]: 4850 nM
AUC(0-t) [17]: 26.5 µM·h
bioavailability [18]: 93.2%
Papp A→B [19]: 1.4 ×10⁻⁶ cm/s
Papp B→A [20]: 20.4 ×10⁻⁶ cm/s
efflux ratio [21]: 14.1
fraction unbound [22]: 0.44
fraction unbound [23]: 0.414
microsomal CLint [24]: < 7.5 µL/min/mg
microsomal CLint [25]: < 7.5 µL/min/mg
microsomal CLint [26]: < 7.5 µL/min/mg
microsomal CLint [27]: < 7.5 µL/min/mg
microsomal CLint [28]: < 7.5 µL/min/mg
IC50 (CYP1A2): > 50000 nM
IC50 (CYP2D6): > 50000 nM
IC50 (CYP2C19): > 50000 nM
IC50 (CYP2C9): > 50000 nM
IC50 (CYP3A4): > 50000 nM
IC50 [29]: > 30000 nM
Activity (Cytochrome P450 3A4): Not Active
EC50 (Hepatitis B virus [30]): 28.2 nM
EC50 (Hepatitis B virus [31]): 16 nM
Activity (Hepatitis B virus [32]): 50%
Activity (Hepatitis B virus [33]): Dose-Dependent Effect
Activity (Hepatitis B virus [34]): Dose-Dependent Effect
Activity (Hepatitis B virus [35]): Tde
Activity (Hepatitis B virus [36]): Tde
Activity (Hepatitis B virus [37]): Active
Activity (Hepatitis B virus [38]): Dose-Dependent Effect
Activity (Hepatitis B virus [39]): Dose-Dependent Effect
Activity (Hepatitis B virus [40]): inactive
Activity (Hepatitis B virus [41]): inactive
Activity (Hepatitis B virus [42]): inactive
Activity (Hepatitis B virus [43]): Active
Activity [44]: Non-Toxic
Activity [45]: Not Active
Activity [46]: Non-Toxic
Activity [47]: Toxic
Activity [48]: Non-Toxic
